Measurements: patent publication US9855225B2, “Cannabinoid receptor treatments” (TEMPLE UNIVERSITY OFFICE OF TECHNOLOGY TRANSFER, priority 2011, dated 2018)
Several values for one entry are separate records, joined by “and”; a condition that tells them apart may be missing. Identical values can stand only once. Like-named read-outs stand apart in the source and are kept apart here.

Tests used:
mouse splenocytes = details: primary and secondary in vitro assays; earlier work of the inventors; cited from earlier work
[1] = system: C57BL/6 responder splenocytes from WT mice; test: One-way mixed lymphocyte reaction (MLR), [3H]-thymidine incorporation, wild-type responder splenocytes; type: cell-based, mouse; details: for Inhibition of the MLR: WT splenocytes, agonist 16 and 32 μM, 3 h
Description: The MLR assay is a common method used to evaluate the cellular immune responses from two different individuals or animals and is considered to be an in vitro correlate of skin and organ transplant rejection. Lymphocytes from two different populations can be incubated together in which the T cells recognize the foreign cells from the other strain, become activated, proliferate and take up tritiated thymidine ([^3H]-thymidine). Results from this assay (Examples 1, 2 and 4) are expressed as a Suppression Index (SI), where untreated spleen cells are given a value of 1.00 (100%), and responses of cultures receiving treatment with cannabinoids are calculated as: […]
All SI data were transformed to normalized ranks to accommodate non-normality of the data. ANOVA was used to test for significant differences between groups.
The aim of the next series of experiments was to test the hypothesis that suppression of proliferation in the MLR is a CB2 receptor-mediated function.

[2] = system: IL-2 release from splenocytes from CB2R-/- KO mice; test: IL-2 release in MLR supernatants by ELISA, CB2R-/- KO splenocytes; details: supernatants at 24 hours
CD3+ T-cell population = test: mRNA expression (microarray/qPCR) in CD3+ T-cells from the MLR; type: cell-based, mouse; details: 32 μM/ml, 18 hours, vs vehicle
Description: This experiment was carried out to screen for molecules that are modulated by exposure of mouse spleen cells to the CB2 receptor agonist (FIG. 6). The experiment used a commercial microarray (Qiagen) that tests the levels of 89 different mRNAs. Spleen cells were placed in culture to carry out a standard Mixed Lymphocyte Reaction (MLR) assay. Experimental wells received 32 μM/ml of the selective CB2 receptor agonist, O-1966, and control wells received vehicle (0.4% ethanol). […] The decrease in CD40L and Cyclin D3 mRNA was significant because CD40L is an activation molecule for T-cells, and Cyclin D3 is a molecule involved in cell division. T-cell activation and division are decreased after exposure to the selective CB2 receptor agonist.

[3] = system: C57Bl/6 mice with skin grafts from C3HeB/FeJ mice; test: Skin graft rejection in mice; type: in vivo, mouse; details: 5 mg/kg intraperitoneal every other day for 14 days
Description: Groups of C57Bl/6 mice received skin grafts from C3HeB/FeJ mice that are histoincompatible (FIG. 11). Starting one hour before grafting mice were treated by intraperitoneal injection with either 5 mg/kg of the CB2 receptor agonist, O-1966, or vehicle. (Volumes were based on weight. but were usually approximately 0.2 ml.) every other day for 14 days, and monitored for graft rejection. Mice that received O-1966 treatment had viable grafts 2.7 days longer than vehicle treated mice, which was statistically significant.

MLR culture cells = test: Cell viability in MLR cultures by flow cytometry (LIVE/DEAD stain); type: cell-based, mouse; details: parallel MLR cultures
Description: Lastly, cultures were run in parallel with each experimental MLR and tested by flow cytometry to assess viability using LIVE/DEAD® Fixable Dead Cell Stain Kit (Molecular Probes, Inc.; Eugene, Oreg.). Cells (1×10^6) from the culture were resuspended in 1 ml FCM Staining Buffer and incubated for 30 min at room temperature with 1 μl dead cell stain. Cells were washed twice and resuspended in FCM staining buffer and analyzed using an LSRII (BD Biosciences) flow cytometer, and the data were analyzed using FACSDiva™ software (BD Biosciences).

Tregs = Tregs (Foxp3+ CD4+) in the MLR by flow cytometry; type: cell-based, mouse; details: 48 hours
Description: An MLR assay was performed in which experimental wells received 32 μM/ml of O-1966 and control wells received vehicle (FIG. 8). At 48 hours, cells were harvested and stained for expression of Foxp3 and CD4 (Cells that are double positive for these two markers are considered Tregs). Cells were analyzed for marker expression by flow cytometry. Wells that received no treatment had 2.1%+/−0.14 Tregs compared to wells that were treated with 32 μM O-1966 which had 4.3%+/−0.27 Tregs. These differences were statistically significant, as 20,000 cells were counted in each group. Tregs are a relatively newly recognized subset of T-cells that suppress T-cell immune responses. Thus, an increase their number induced by the CB2 receptor agonist provides a second mechanism by which the cannabinoid is altering T-cell responsiveness in the MLR assay.
An MLR was performed in which some wells received 1.6 μg/ml of anti-IL-10 antibody (FIG. 10). Cells were harvested at 48 hours and stained as described under #3 above for Tregs. Cells that received 32 μM O-1966 and no anti-IL-10 antibody had 4.3%+/−0.28 Tregs. Wells that received only anti-IL-10 antibody and no O-1966, had 1.7%+/−0.16 Tregs. Wells that received anti-IL-10 antibody in addition to 32 μM O-1966 had 2.9%+/−0.25 Tregs.

IL-10 release in the MLR = test: IL-10 release in the MLR; type: cell-based, mouse; details: 32 μM, supernatants after 24 hours
Description: An MLR assay was performed in which experimental wells received 32 μM/ml of O-1966 and control wells received vehicle (FIGS. 7 and 9). Supernatants were collected after 24 hours. […] IL-10 is an immunosuppressive cytokine, so its rise induced by the CB2 receptor agonist provides a mechanism of action for the cannabinoid in suppressing the MLR. In a separate MLR some wells received 1.6 μg/ml of anti-IL-10 antibody. Wells that received no antibody and 32 μM 0-1966 had 90% suppression of proliferation compared to untreated cells. Cells that were treated with anti-IL-10 antibody and 32 μM O-1966 had 43% suppression of proliferation compared to wells that received anti-IL-10 antibody only.

[4] = Spleen weight of treated skin graft recipient mice; type: in vivo, mouse; details: Day 14, 5 mg/kg every other day
Source text: Spleens were removed on Day 14 and weighed. Spleens from vehicle treated mice were 0.093+/−0.01 grams and spleens from O-1966 mice were 0.077+/−0.006 grams. Spleens of untreated mice average 0.072+/−0.009 grams (historical data). The average spleen weight index ([spleen weight/body weight]×100) was 0.46% in vehicle treated mice and 0.38% in O-1966 treated mice.

[5] = system: splenocytes from skin graft recipient mice; test: Ex vivo MLR of splenocytes from treated skin graft recipient mice; parameters: species or system mouse; details: 5 mg/kg every other day 14 days; spleens day 14; 48 hr in culture
Description: Splenocytes from O-1966 treated skin graft recipient mice have decreased proliferation in an ex vivo MLR. (FIG. 12). Groups of mice received skin grafts and were treated with either 5 mg/kg O-1966 or vehicle every other day for 14 days. Spleens were removed on day 14 and placed in an MLR assay. The cells were restimulated in vitro with splenocytes from an incompatible mouse strain, but they received no additional treatment with a cannabinoid in vitro.

[6] = system: CD3+ cells (T cells) and CD11b+ cells; type: cell-based, mouse; details: 1-32 μM, 3 hours, fractions added back
splenic Tregs = test: Splenic Tregs of treated skin graft recipient mice by flow cytometry; type: in vivo, mouse
Description: O-1966 treated mice that received skin grafts have an increased percentage of splenic Tregs. (FIGS. 13 and 14): Spleen cells taken from the animals described in C1 above were harvested from animals, and a sample was immediately analyzed by flow cytometry. Another sample was placed in culture for 48 hours. […] Cells that were harvested after 48 hours in the MLR had 4.75% Tregs in the vehicle treated mice and 9.7% Tregs in the O-1966 treated mice.

[7] = system: C57BL/6 responder splenocytes from WT mice; details: added to unfractionated murine spleen cells; previously shown by the inventors; cited from earlier work

CCCCC/C=C\C/C=C\C/C=C\C/C=C\CCCC(=O)NCCO [anandamide, arachidonoylethanolamide]
Immunosuppression in plaque-formation cell assays (mouse splenocytes): induce dose-related immunosuppression

CCCn1c(C)c(C(=O)c2cccc3ccccc23)c2ccccc21 [JWH-015, reference compound]
Inhibition of the MLR [1]: markedly inhibited the MLR

CCCCCCC(C)(C)c1cc(OC)c(C2(O)CCCC(C)C2)c(OC)c1 (centres unmarked) [O-1966, 1-{4-(1,1-Dimeyhyl-heptyl)-2,6-dimethoxy-phenyl}-3-methyl-cyclohexanol]
Inhibition of IL-2 release [2]: without effect
CD40L mRNA expression (CD3+ T-cell population): −4.60 fold
Cyclin D3 mRNA expression (CD3+ T-cell population): −4.10 fold
IL-10 mRNA expression (CD3+ T-cell population): 4.74 fold
Sla2 mRNA expression (CD3+ T-cell population): 4.75 fold
Socs5 mRNA expression (CD3+ T-cell population): 4.37 fold
Viable grafts longer than vehicle treated mice [3]: 2.7 days
Effect on cell death (live versus dead cells) (MLR culture cells): did not affect cell death
Tregs (Foxp3+ CD4+) (Tregs; 32 μM O-1966 plus 1.6 μg/ml anti-IL-10 antibody): 2.9%+/−0.25
Tregs (Foxp3+ CD4+) (Tregs; 32 μM, no anti-IL-10 antibody): 4.3%+/−0.27 and 4.3%+/−0.28
IL-10 release in the MLR (IL-10 release in the MLR): 96.75 pg/mL
Increase of IL-10 release in the MLR (IL-10 release in the MLR): 2.46 fold
Average spleen weight index ([spleen weight/body weight]×100) [4]: 0.38%
Spleen weight [4]: 0.077+/−0.006 grams
Decreased proliferation in ex vivo MLR compared to vehicle treated mice [5]: 50%
Suppression of proliferation ([1]; 32 μM plus 1.6 μg/ml anti-IL-10 antibody, compared to antibody only): 43%
Suppression of proliferation ([1]; 32 μM, no antibody, compared to untreated cells): 90%
Inhibition of the MLR [1]: markedly inhibited the MLR
SI values, CD3+ treated versus CD11b+ treated fractions [6]: selectively reduced the SI values for cultures in which the CD3^+ cells were treated
Tregs (CD4+, Foxp3+) of the CD4 cells (splenic Tregs; analyzed immediately after sacrifice, day 14, 5 mg/kg): 32.2%
Tregs after 48 hours in the MLR (splenic Tregs; ex vivo MLR 48 hours, 5 mg/kg in vivo): 9.7%

CCCCCc1cc(O)c2c(c1)OC(C)(C)[C@@H]1CCC(C)=C[C@@H]21 [THC (Marinol), Δ^9-tetrahydrocannabinol]
Immunosuppression in plaque-formation cell assays (mouse splenocytes): induce dose-related immunosuppression
Inhibition of the MLR [7]: inhibit the MLR

SR144528 [reference compound]
Block of suppression of the MLR by JWH-015 and O-1966 ([1]; antagonist 32-320 μM added 2 h before agonist (16 and 32 μM)): blocked suppression
